In this experiment the target is EBI2 (Homo sapiens, UniProt P32249). Nature of the experiment: Cell-based luminescent assay of EBI2 modulation (7a,25-OHC stimulated). The following applies: 7a,25-OHC final assay concentration 80 nM, 60 minute incubation. The protocol:
To assess EBI2 modulation, the compounds described herein were assayed in the following cell-based luminescent assay:
1) Plated 600 cells/well in 4 μL of assay media into columns 1-48 of a 1536-well assay plate, using a liquid dispenser.
2) Centrifuged plates at 1000 rpm for 1 minute and covered with lids.
3) Incubated overnight at 37° C., 100% relative humidity, 5% CO2.
1) Centrifuged compound plates containing compounds described herein at 500 rpm for 1 minute.
2) Added compounds into assay plate col 5-48 to final concentration 4-5 uM. Added matching amount of DMSO to positive and negative control wells in columns 1-4.
3) Dispensed 2 uL/well of assay media to columns 1-2 for the positive control wells.
4) Added 2 uL/well of 400 nM 7a,25-OHC (final assay concentration=80 nM) in assay media to columns 3-48 for the negative control and test compound wells.
5) Centrifuged plates at 1000 rpm for 1 minute and re-lid plates.
6) Incubated plates at 37° C., 100% relative humidity, 5% CO2 for 60 minutes.
7) Following 60 minute incubation, delivered 2.5 uL of Detection Reagent solution to each assay plate (Columns 1-48) using a liquid handler.
8) Centrifuged plates at 2000 rpm for 2 minutes and re-lid plates.
9) Incubated plates for 60 minutes at 25 degrees in the dark.
10) Read plates using the Viewlux, Envision or other suitable plate reader using a luminescence detection.
The experimental values were normalized by the difference between values from neutral and stimulator control wells in each plate. Then normalized data was corrected to remove systematic plate patterns due to artifacts such as dispensing tip issues etc.
Sequence of EBI2 (P32249 whole entry): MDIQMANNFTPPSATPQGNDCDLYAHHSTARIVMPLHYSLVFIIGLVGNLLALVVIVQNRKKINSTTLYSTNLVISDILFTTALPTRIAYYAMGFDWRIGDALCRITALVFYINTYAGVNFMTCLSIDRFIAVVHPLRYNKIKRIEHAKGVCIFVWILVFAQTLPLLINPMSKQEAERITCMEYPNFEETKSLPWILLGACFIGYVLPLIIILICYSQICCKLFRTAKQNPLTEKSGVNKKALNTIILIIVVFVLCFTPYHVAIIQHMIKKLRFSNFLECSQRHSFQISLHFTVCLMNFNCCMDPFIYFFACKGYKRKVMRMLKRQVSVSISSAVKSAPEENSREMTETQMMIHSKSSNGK
As a reminder, the IC50 is the concentration that inhibits the measured activity by half. The compound `COc1cc(CN2CCC3(CC2)CN(C(=O)c2cc4cc(Br)ccc4[nH]2)C3)cc(OC)c1` [Compound C62, 7-[(3,5-dimethoxyphenyl)methyl]-2,7-diazaspiro[3.5]non-2-yl 5-bromoindol-2-yl ketone] had a half-inhibitory concentration (IC50) of 0.1 to 0.5 µM. `O=C(c1cc2ccc(Br)cc2[nH]1)N1CC2(CCN(Cc3ccc(C(F)(F)F)cc3)CC2)C1` [Compound C63, 6-bromoindol-2-yl 7-{[4-(trifluoromethyl)phenyl]methyl}-2,7-diazaspiro[3.5]non-2-yl ketone]: the concentration for half-maximal inhibition (IC50) was in the range of 0.5 to 5 µM. With `O=C(C#Cc1ccc(Br)cc1)N1CC2(CCN(C(=O)c3ccc(Cl)cc3)CC2)C1` [Compound C64, 3-(4-bromophenyl)-1-{7-[(4-chlorophenyl)carbonyl]-2,7-diazaspiro[3.5]non-2-yl}prop-2-yn-1-one] the figure was 0.1 to 0.5 µM. Under `O=C(C#Cc1ccc(Br)cc1)N1CC2(CCN(C(=O)c3ccc(C(F)(F)F)cc3)CC2)C1` [Compound C65, 3-(4-bromophenyl)-1-(7-{[4-(trifluoromethyl)phenyl]carbonyl}-2,7-diazaspiro[3.5]non-2-yl)prop-2-yn-1-one] stands 0.1 to 0.5 µM; under `O=C(C#Cc1ccc(Br)cc1)N1CCC2(CC1)CN(C(=O)c1ccc(F)cc1)C2` [Compound C67, 3-(4-bromophenyl)-1-{2-[(4-fluorophenyl)carbonyl]-2,7-diazaspiro[3.5]non-7-yl}prop-2-yn-1-one], 0.5 to 5 µM.

Consider `O=C(C#Cc1ccc(Br)cc1)N1CCC2(CC1)CN(Cc1ccc(F)cc1)C2` [Compound C68, 3-(4-bromophenyl)-1-{2-[(4-fluorophenyl)methyl]-2,7-diazaspiro[3.5]non-7-yl}prop-2-yn-1-one], for which the IC50 is < 0.1 µM. Turning to `O=C(C#Cc1ccc(Br)cc1)N1CCC2(CC1)CN(Cc1ccc(Cl)cc1)C2` [Compound C69, 3-(4-bromophenyl)-1-{2-[(4-chlorophenyl)methyl]-2,7-diazaspiro[3.5]non-7-yl}prop-2-yn-1-one], the IC50 is < 0.1 µM.

`O=C(C#Cc1ccc(Br)cc1)N1CCC2(CC1)CN(C(=O)c1ccc(Cl)cc1)C2` [Compound C70, 3-(4-bromophenyl)-1-{2-[(4-chlorophenyl)carbonyl]-2,7-diazaspiro[3.5]non-7-yl}prop-2-yn-1-one] registered an IC50 of 0.1 to 0.5 µM. For the compound `O=C(C#Cc1ccc(Br)cc1)N1CCC2(CC1)CN(C(=O)c1ccc(C(F)(F)F)cc1)C2` [Compound C71, 3-(4-bromophenyl)-1-(2-{[4-(trifluoromethyl)phenyl]carbonyl}-2,7-diazaspiro[3.5]non-7-yl)prop-2-yn-1-one], the IC50 is < 0.1 µM. With `O=C(C#Cc1ccc(Br)cc1)N1CCC2(CC1)CN(Cc1ccc(Br)cc1)C2` [Compound C72, 3-(4-bromophenyl)-1-{2-[(4-bromophenyl)methyl]-2,7-diazaspiro[3.5]non-7-yl}prop-2-yn-1-one] the figure was < 0.1 µM. With `O=C(C#Cc1ccc(Br)cc1)N1CCC2(CC1)CN(Cc1ccc(C(F)(F)F)cc1)C2` [Compound C73, 3-(4-bromophenyl)-1-(2-{[4-(trifluoromethyl)phenyl]methyl}-2,7-diazaspiro[3.5]non-7-yl)prop-2-yn-1-one] the figure was < 0.1 µM; with `COc1ccc(C(=O)N2CC3(CCN(C(=O)C#Cc4ccc(Br)cc4)CC3)C2)cc1` [Compound C74, 3-(4-bromophenyl)-1-{2-[(4-methoxyphenyl)carbonyl]-2,7-diazaspiro[3.5]non-7-yl}prop-2-yn-1-one], < 0.1 µM. The compound `COc1ccc(CN2CC3(CCN(C(=O)C#Cc4ccc(Br)cc4)CC3)C2)cc1` [Compound C75, 3-(4-bromophenyl)-1-{2-[(4-methoxyphenyl)methyl]-2,7-diazaspiro[3.5]non-7-yl}prop-2-yn-1-one] displayed an IC50 of 0.1 to 0.5 µM. Under `O=C(C#Cc1ccc(Cl)cc1)N1CCC2(CC1)CN(C(=O)c1ccc(Cl)cc1)C2` [Compound C76, 3-(4-chlorophenyl)-1-{2-[(4-chlorophenyl)carbonyl]-2,7-diazaspiro[3.5]non-7-yl}prop-2-yn-1-one] stands < 0.1 µM; under `O=C(C#Cc1ccc(Cl)cc1)N1CCC2(CC1)CN(C(=O)c1ccc(F)cc1)C2` [Compound C77, 3-(4-chlorophenyl)-1-{2-[(4-fluorophenyl)carbonyl]-2,7-diazaspiro[3.5]non-7-yl}prop-2-yn-1-one], < 0.1 µM.

`O=C(C#Cc1ccc(Cl)cc1)N1CCC2(CC1)CN(Cc1ccc(C(F)(F)F)cc1)C2` [Compound C78, 3-(4-chlorophenyl)-1-(2-{[4-(trifluoromethyl)phenyl]methyl}-2,7-diazaspiro[3.5]non-7-yl)prop-2-yn-1-one]: the IC50 was < 0.1 µM. With `O=C(C#Cc1ccc(Cl)cc1)N1CCC2(CC1)CN(C(=O)c1ccc(C(F)(F)F)cc1)C2` [Compound C79, 3-(4-chlorophenyl)-1-(2-{[4-(trifluoromethyl)phenyl]carbonyl}-2,7-diazaspiro[3.5]non-7-yl)prop-2-yn-1-one] the figure was < 0.1 µM. With `O=C(C#Cc1ccc(Cl)cc1)N1CC2(CCN(C(=O)c3ccc(C(F)(F)F)cc3)CC2)C1` [Compound C80, 3-(4-chlorophenyl)-1-(7-{[4-(trifluoromethyl)phenyl]carbonyl}-2,7-diazaspiro[3.5]non-2-yl)prop-2-yn-1-one] the figure was < 0.1 µM; with `O=C(C#Cc1ccc(Cl)cc1)N1CC2(CCN(Cc3ccc(F)cc3)CC2)C1` [Compound C81, 3-(4-chlorophenyl)-1-{7-[(4-fluorophenyl)methyl]-2,7-diazaspiro[3.5]non-2-yl}prop-2-yn-1-one], 0.1 to 0.5 µM; with `O=C(C#Cc1ccc(Cl)cc1)N1CCC2(CC1)CN(Cc1ccc(Cl)cc1)C2` [Compound C82, 3-(4-chlorophenyl)-1-{2-[(4-chlorophenyl)methyl]-2,7-diazaspiro[3.5]non-7-yl}prop-2-yn-1-one], < 0.1 µM. The compound `O=C(C#Cc1ccc(Cl)cc1)N1CC2(CCN(Cc3ccc(C(F)(F)F)cc3)CC2)C1` [Compound C83, 3-(4-chlorophenyl)-1-(7-{[4-(trifluoromethyl)phenyl]methyl}-2,7-diazaspiro[3.5]non-2-yl)prop-2-yn-1-one] displayed an IC50 of 0.5 to 5 µM. On to `O=C(C#Cc1ccc(Cl)cc1)N1CC2(CCN(C(=O)c3ccc(Cl)cc3)CC2)C1` [Compound C84, 3-(4-chlorophenyl)-1-{7-[(4-chlorophenyl)carbonyl]-2,7-diazaspiro[3.5]non-2-yl}prop-2-yn-1-one], for which the IC50 was < 0.1 µM. `O=C(C#Cc1ccc(Cl)cc1)N1CC2(CCN(Cc3ccc(Cl)cc3)CC2)C1` [Compound C85, 3-(4-chlorophenyl)-1-{7-[(4-chlorophenyl)methyl]-2,7-diazaspiro[3.5]non-2-yl}prop-2-yn-1-one]: the IC50 was in the range of 0.1 to 0.5 µM. Under `O=C(C#Cc1ccc(F)cc1)N1CCC2(CC1)CN(C(=O)c1ccc(F)cc1)C2` [Compound C86, 3-(4-fluorophenyl)-1-{2-[(4-fluorophenyl)carbonyl]-2,7-diazaspiro[3.5]non-7-yl}prop-2-yn-1-one] stands 0.1 to 0.5 µM; under `O=C(C#Cc1ccc(F)cc1)N1CCC2(CC1)CN(C(=O)c1ccc(Cl)cc1)C2` [Compound C87, 1-{2-[(4-chlorophenyl)carbonyl]-2,7-diazaspiro[3.5]non-7-yl}-3-(4-fluorophenyl)prop-2-yn-1-one], < 0.1 µM; under `O=C(C#Cc1ccc(F)cc1)N1CCC2(CC1)CN(C(=O)c1ccc(C(F)(F)F)cc1)C2` [Compound C88, 3-(4-fluorophenyl)-1-(2-{[4-(trifluoromethyl)phenyl]carbonyl}-2,7-diazaspiro[3.5]non-7-yl)prop-2-yn-1-one], < 0.1 µM. Under `COc1ccc(C(=O)N2CC3(CCN(C(=O)C#Cc4ccc(F)cc4)CC3)C2)cc1` [Compound C89, 3-(4-fluorophenyl)-1-{2-[(4-methoxyphenyl)carbonyl]-2,7-diazaspiro[3.5]non-7-yl}prop-2-yn-1-one] stands 0.1 to 0.5 µM; under `O=C(C#Cc1ccc(F)cc1)N1CCC2(CC1)CN(Cc1ccc(F)cc1C(F)(F)F)C2` [Compound C90, 3-(4-fluorophenyl)-1-(2-{[4-fluoro-2-(trifluoromethyl)phenyl]methyl}-2,7-diazaspiro[3.5]non-7-yl)prop-2-yn-1-one], 0.1 to 0.5 µM; under `COc1ccc(C(=O)N2CCC3(CC2)CN(C(=O)C#Cc2ccc(Cl)cc2)C3)cc1` [Compound C91, 3-(4-chlorophenyl)-1-{7-[(4-methoxyphenyl)carbonyl]-2,7-diazaspiro[3.5]non-2-yl}prop-2-yn-1-one], < 0.1 µM. Take `COc1ccc(C(=O)N2CCC3(CC2)CN(C(=O)C#Cc2ccc(F)cc2)C3)cc1` [Compound C92, 3-(4-fluorophenyl)-1-{7-[(4-methoxyphenyl)carbonyl]-2,7-diazaspiro[3.5]non-2-yl}prop-2-yn-1-one]: the IC50 was 0.1 to 0.5 µM. In turn, `O=C(C#Cc1ccc(F)cc1)N1CC2(CCN(C(=O)c3ccc(F)cc3)CC2)C1` [Compound C93, 3-(4-fluorophenyl)-1-{7-[(4-fluorophenyl)carbonyl]-2,7-diazaspiro[3.5]non-2-yl}prop-2-yn-1-one] yielded a 50% inhibitory concentration (IC50) of 0.5 to 5 µM.

In turn, `O=C(C#Cc1ccc(F)cc1)N1CC2(CCN(C(=O)c3ccc(Cl)cc3)CC2)C1` [Compound C94, 1-{7-[(4-chlorophenyl)carbonyl]-2,7-diazaspiro[3.5]non-2-yl}-3-(4-fluorophenyl)prop-2-yn-1-one] had an IC50 of 0.1 to 0.5 µM.
